Structures are written as SMILES. Bounds are passed on as bounds.

What is called Ki is a dissociation constant, usually derived from enzyme kinetics or from competition with a known ligand. A higher Ki goes with a looser hold on the target. The EC50 is the midpoint of the concentration-response curve.

One data set has as its target human SSTR1 (Homo sapiens (Human), UniProt P30872). As to the kind of experiment: Radioligand binding assay, human SSTR1. An excerpt:
(§1) Radioligand Binding Assays
(§2) Method description for binding assays with human Somatostatin receptors by use of CHO cell membranes expressing recombinant human SSTR1 or human SSTR2 or human SSTR3 or human SSTR4 or human SSTR5
(§3) Receptor binding assays refer to a technique in which labeled receptor ligands are used to detect binding to a receptor. In competition experiments test compounds, which are not labeled, compete with the binding side of a labeled ligand. The displacement of the labeled ligand by the test compound leads to a decreased signal.
(§4) For the binding experiments 200 μL of membrane homogenate from one of the following protein amounts is used: hSSTR1 (40 μg/well); hSSTR2 (25 μg/well); hSSTR3 (1.5 μg/well); hSSTR4 (0.5 μg/well); hSSTR5 (25 μg/well). The homogenate is incubated with 0.05 nM of radioligand ([3-125I-Tyr]-Somatostatin-(1-14)) in addition to increasing concentrations of a test compound or vehicle (100% binding) in a total volume of 250 μL using a Hepes buffer (10 mM, EDTA 1 mM, MgCl2 5 mM, pH7.6, BSA 0.5%, Bacitracin 0.003%, DMSO 1% for 180 min at room temperature. The incubation is terminated by filtration with ice cold NaCl 0.9% through polyethyleneimine treated (0.3%) GF/B glass fiber filters using a cell harvester. The protein-bound radioactivity is measured in a suitable reader. The non-specific binding is defined as radioactivity bound in the presence of 1 μM Somatostatin-14 during the incubation period.
(§5) The analysis of the concentration-binding curves is performed by computer-assisted nonlinear least square curve fitting method using the model of one receptor binding site.

For the next data set, the target named is human SSTR4 (Homo sapiens (Human), UniProt P31391). As to the kind of experiment: Radioligand binding assay, human SSTR4.
Excerpt: as §1, §2, §3, §4, §5

A short description of data set [1]: Metabolic stability in human liver microsomes. The data set is classed as in vitro ADME. Particulars: pooled human liver microsomes, 37° C., 1 μM test compound, NADPH; for half-life at 1 μM: pH 7.6, read-out: Half-life t1/2. The method, then: The metabolic stability of the compounds according to the invention may be investigated as follows:
The metabolic degradation of the test compound is assayed at 37° C. with pooled human liver microsomes. The final incubation volume of 100 μl per time point contains TRIS buffer pH 7.6 at room temperature (0.1 M), magnesium chloride (5 mM), microsomal protein (1 mg/mL) and the test compound at a final concentration of 1 μM. Following a short preincubation period at 37° C., the reactions are initiated by addition of beta-nicotinamide adenine dinucleotide phosphate, reduced form (NADPH, 1 mM), and terminated by transferring an aliquot into solvent after different time points. After centrifugation (10000 g, 5 min), an aliquot of the supernatant is assayed by LC-MS/MS for the amount of parent compound. The half-life is determined by the slope of the semi-logarithmic plot of the concentration-time profile.
For orientation: Liver microsomes are a subcellular fraction often used to study metabolism.

For the next data set, the target named is human SSTR3 (Homo sapiens (Human), UniProt P32745). As to the kind of experiment: Radioligand binding assay, human SSTR3.
Excerpt: as §1, §2, §3, §4, §5

Another data set addresses human SSTR5 (Homo sapiens (Human), UniProt P35346). Description: Radioligand binding assay, human SSTR5.
Excerpt: as §1, §2, §3, §4, §5

The target of data set [2] is human Somatostatin 4 receptor (SSTR4) (Homo sapiens (Human), UniProt P31391). Description: cAMP assay with human Somatostatin 4 receptor. Particulars: hSSTR4 expressing H4 cells, inhibition of Forskolin-stimulated cAMP; read-out: SSTR4 agonism EC50. The data set is classed as cell-based. The protocol: Method description for cAMP assay with human Somatostatin 4 receptor.
The activation of the SSTR4 receptor (Gi coupled) causes an inhibition of intracellular cAMP after stimulation with Forskolin, which can be quantifiable by use of a suitable assay Kit and an adequate plate reader. This technique is used to characterize pharmacological effects of the SSTR4 receptor agonists by use of hSSTR4 expressing H4 cells.
Compounds are dissolved and diluted in DMSO. The final test solution contains […]. The cAMP standard (Lance cAMP 384 Kit; PerkinElmer, Cat #AD0264) is prepared in assay buffer (HBSS with 0.1% BSA, 5 mM HEPES, […], pH 7.4) containing 1% DMSO and the cAMP standard curve is included at least on one plate. Cells are centrifuged and suspended in assay buffer (incl. 1:100 diluted Alexa antibody).
For the assay 5 μl of a cell suspension (approximately 5000 cells/well)—incl. Alexa antibody (diluted 1:100) are added into a 384 well MTP microtitre plate excepting one row or column (depending on the plate layout), which is reserved for the standard curve. Then 2 μl of compound sample is added as concentration response curve (e.g. 1e-5 M to 6e-10 M), usually in triplicates. Each assay contains incubations with vehicle controls instead of compound as controls for non-inhibited cAMP generation (100% CTL; ‘high values’) and incubations with 1 μM Somatosatin as controls for full inhibition and background (0% CTL; ‘low values’). After approximately 10-15 min incubation time 3 μl Forskolin (dissolved in DMSO, final conc. 15 μM) is added. Then the plates are shaken briefly and incubated for 60 min at room temperature. After 60 min 10 μl of the detection mix is added into all wells followed by an additional incubation period of 1 h. The plates are read in a suitable plate reader.
The analysis of the data is based on the “ratio” of the time-resolved fluorescence measurements of donor and acceptor fluorophore (Ex: 320 nm; Em1: 665 nm; Em2: 615 nm; ratio 665/615). From this ratio, cAMP concentrations are calculated from standard curve and the EC50 is estimated by least square curve fit program.
(Cyclic AMP is a second messenger, typically raised through Gs and lowered through Gi signalling.)

The target in the next data set is human SSTR2 (Homo sapiens (Human), UniProt P30874). As to the kind of experiment: Radioligand binding assay, human SSTR2.
Excerpt: as §1, §2, §3, §4, §5

Sequence of human SSTR5 (P35346 whole entry): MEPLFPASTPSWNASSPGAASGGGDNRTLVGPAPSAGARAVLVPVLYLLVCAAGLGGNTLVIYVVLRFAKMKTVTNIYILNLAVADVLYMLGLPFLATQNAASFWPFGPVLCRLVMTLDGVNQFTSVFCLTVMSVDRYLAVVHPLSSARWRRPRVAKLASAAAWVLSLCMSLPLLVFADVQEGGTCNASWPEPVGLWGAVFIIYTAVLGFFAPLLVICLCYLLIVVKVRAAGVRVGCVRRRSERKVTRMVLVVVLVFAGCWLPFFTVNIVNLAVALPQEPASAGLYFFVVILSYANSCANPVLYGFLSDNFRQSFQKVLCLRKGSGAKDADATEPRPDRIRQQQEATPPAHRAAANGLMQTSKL
Sequence of human SSTR2 (P30874 whole entry): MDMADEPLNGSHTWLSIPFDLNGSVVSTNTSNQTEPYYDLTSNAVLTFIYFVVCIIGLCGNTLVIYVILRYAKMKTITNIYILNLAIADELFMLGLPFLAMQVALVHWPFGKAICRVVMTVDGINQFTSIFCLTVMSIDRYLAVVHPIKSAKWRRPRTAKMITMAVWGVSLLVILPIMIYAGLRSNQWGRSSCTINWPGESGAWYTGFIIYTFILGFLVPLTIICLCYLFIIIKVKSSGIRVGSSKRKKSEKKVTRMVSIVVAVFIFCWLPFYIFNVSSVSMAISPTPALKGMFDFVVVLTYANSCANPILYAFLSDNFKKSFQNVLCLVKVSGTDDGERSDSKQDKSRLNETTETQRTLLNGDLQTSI
Sequence of human Somatostatin 4 receptor (SSTR4) (P31391 whole entry): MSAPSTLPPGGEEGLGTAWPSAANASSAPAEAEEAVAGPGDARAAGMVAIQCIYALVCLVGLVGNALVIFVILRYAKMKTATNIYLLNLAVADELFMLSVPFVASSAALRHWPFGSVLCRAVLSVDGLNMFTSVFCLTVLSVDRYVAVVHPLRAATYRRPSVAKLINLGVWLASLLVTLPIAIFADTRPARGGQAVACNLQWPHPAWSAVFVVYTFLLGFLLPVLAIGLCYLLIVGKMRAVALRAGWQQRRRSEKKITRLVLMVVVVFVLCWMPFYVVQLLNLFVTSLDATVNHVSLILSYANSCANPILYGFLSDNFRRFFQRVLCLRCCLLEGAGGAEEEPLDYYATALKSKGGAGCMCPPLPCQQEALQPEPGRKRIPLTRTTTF
Sequence of human SSTR4 (P31391 whole entry): as above
Sequence of human SSTR3 (P32745 whole entry): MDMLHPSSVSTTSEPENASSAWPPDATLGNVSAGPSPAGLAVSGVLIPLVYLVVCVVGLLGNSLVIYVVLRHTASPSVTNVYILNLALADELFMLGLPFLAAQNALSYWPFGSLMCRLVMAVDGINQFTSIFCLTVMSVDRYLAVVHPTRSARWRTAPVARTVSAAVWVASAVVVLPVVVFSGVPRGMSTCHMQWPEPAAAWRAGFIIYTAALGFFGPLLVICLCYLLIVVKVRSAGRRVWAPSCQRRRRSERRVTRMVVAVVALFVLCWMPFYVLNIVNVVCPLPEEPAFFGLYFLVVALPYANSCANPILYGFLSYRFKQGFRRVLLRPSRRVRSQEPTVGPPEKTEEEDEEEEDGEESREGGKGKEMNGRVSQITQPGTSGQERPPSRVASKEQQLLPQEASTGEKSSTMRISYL
Sequence of human SSTR1 (P30872 whole entry): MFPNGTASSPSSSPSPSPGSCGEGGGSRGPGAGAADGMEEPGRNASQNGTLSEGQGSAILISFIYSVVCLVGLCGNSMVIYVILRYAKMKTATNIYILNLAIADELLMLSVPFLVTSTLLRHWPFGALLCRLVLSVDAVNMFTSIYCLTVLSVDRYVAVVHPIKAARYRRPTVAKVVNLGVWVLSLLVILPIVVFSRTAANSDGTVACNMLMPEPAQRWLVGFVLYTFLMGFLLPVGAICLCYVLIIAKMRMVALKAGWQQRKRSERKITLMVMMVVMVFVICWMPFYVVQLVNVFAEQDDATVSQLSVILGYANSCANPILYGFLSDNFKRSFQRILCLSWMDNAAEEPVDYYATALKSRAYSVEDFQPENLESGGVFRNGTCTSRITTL

As for `CC(C)(NC(=O)c1cccc2c1OCCNC2)c1ccnc2ccccc12` [Example 6], the Ki at human SSTR1 came out at 9.01 µM; on human SSTR4 it was 0.104 µM; on human SSTR3, 8.71 µM; at human SSTR5, 9.86 µM; on human SSTR2, 9.63 µM. Besides, the “Half-life t1/2” value in data set [1] is 2.17 h. Also, the 50% effective concentration (EC50) in data set [2] is 0.0084 µM.
`Cn1nc(C(C)(C)NC(=O)c2cccc3c2OCCNC3)c2ccccc21` [Example 18]: the inhibitory constant (Ki) at human SSTR1 was determined as 7.82 µM; on human SSTR4 it was 0.0395 µM; on human SSTR3, 8.71 µM; on human SSTR5, 9.86 µM; on human SSTR2 it was 9.63 µM. Besides, the half-life at 1 μM in data set [1] was 1.22 h. The EC50 in data set [2] turned out to be 0.0044 µM.
On to `Cn1nc(C(C)(C)NC(=O)c2nccc3c2OCCNC3)c2ccccc21` [Example 19], for which the inhibition constant Ki on human SSTR1 was 9.45 µM; on human SSTR4, 0.613 µM; at human SSTR3 it was 8.62 µM; on human SSTR5, 9.75 µM; on human SSTR2 it was 9.6 µM. Besides, the “Half-life t1/2” value in data set [1] amounted to 2.17 h. Also, the EC50 in data set [2] was determined as 0.0146 µM.
For the compound `Cn1nc(C(C)(C)NC(=O)c2ccnc3c2OCCNC3)c2ccccc21` [Example 20], the inhibition constant Ki at human SSTR1 worked out at 9.45 µM; on human SSTR4, 0.574 µM; at human SSTR3, 8.62 µM; on human SSTR5, 9.75 µM; on human SSTR2, 9.6 µM. Moreover, the half-life at 1 μM in data set [1] is above 2.17 h. Moreover, the EC50 in data set [2] is 0.0175 µM.
Take `Cc1nnc(C(C)(C)NC(=O)c2cccc3c2OCCNC3)c2ccccc12` [Example 26]: the inhibition constant Ki came to 9.45 µM on human SSTR1; 0.065 µM on human SSTR4; 8.62 µM at human SSTR3; 9.75 µM on human SSTR5; 9.6 µM on human SSTR2. In data set [1], the half-life at 1 μM is above 2.17 h. The EC50 in data set [2] was 0.0025 µM.
Regarding `Cc1cccc2c(C(C)(C)NC(=O)c3cccc4c3OCCNC4)n[nH]c12` [Example 33], the Ki was determined as 9.45 µM on human SSTR1; 0.0217 µM on human SSTR4; 8.62 µM at human SSTR3; 9.75 µM on human SSTR5; 9.6 µM on human SSTR2. For the same compound, the half-life at 1 μM in data set [1] is 1.65 h. Further, the EC50 in data set [2] was 0.0008 µM.
Turning to `Cn1nc(C(C)(C)NC(=O)c2cccc3c2OCCNC3)c2cccc(F)c21` [Example 39], the inhibitory constant (Ki) on human SSTR1 was 9.01 µM; on human SSTR4 it was 0.0291 µM; at human SSTR3, 8.71 µM; at human SSTR5 it was 9.86 µM; at human SSTR2, 9.63 µM. In data set [1], the half-life at 1 μM was 0.85 h. Besides, in data set [2], the concentration for a half-maximal effect (EC50) was determined as 0.0021 µM.
In the case of `Cc1cccc2c(C(C)(C)NC(=O)c3cncc4c3OCCNC4)nn(C)c12` [Example 42], the Ki on human SSTR1 turned out to be 9.45 µM; at human SSTR4 it was 0.532 µM; at human SSTR3, 8.62 µM; on human SSTR5, 9.75 µM; at human SSTR2, 9.6 µM. Also, the half-life at 1 μM in data set [1] is above 2.17 h. In data set [2], the EC50 turned out to be 0.0158 µM.
On to `Cc1cccn2c(C(C)(C)NC(=O)c3cccc4c3OCCNC4)ncc12` [Example 47], for which the Ki on human SSTR1 was found to be 9.01 µM; at human SSTR4 it was 0.0532 µM; at human SSTR3, 8.71 µM; on human SSTR5, 9.86 µM; on human SSTR2, 9.63 µM. Moreover, in data set [1], the half-life at 1 μM was above 2.17 h. The EC50 in data set [2] worked out at 0.002 µM.
Consider `Cc1cccn2c(C3(NC(=O)c4cccc5c4OCCNC5)CC3)ncc12` [Example 49], for which the half-life at 1 μM in data set [1] came to 1.55 h. Moreover, the EC50 in data set [2] stood at 0.0015 µM.
In the case of `Cc1nc(C(C)(C)NC(=O)c2cccc3c2OCCNC3)n2cccc(F)c12` [Example 50], the half-life at 1 μM in data set [1] is 1.38 h. Besides, the EC50 in data set [2] was 0.002 µM.
`COc1cccn2c(C(C)(C)NC(=O)c3cccc4c3OCCNC4)ncc12` [Example 51]: the “Half-life t1/2” value in data set [1] stood at 2.17 h. Besides, in data set [2], the EC50 came out at 0.0043 µM.
With `Cc1cccn2c(C(C)(C)NC(=O)c3cccc4c3OCCNC4)nc(C)c12.Cl` [Example 53], the half-life at 1 μM in data set [1] came out at 1.2 h. Further, the EC50 in data set [2] amounted to 0.0016 µM.
Take `CC(C)(NC(=O)c1cccc2c1OCCNC2)c1nc(C2CC2)c2c(F)cccn12` [Example 61]: in data set [1], the half-life at 1 μM stood at 0.75 h. Also, the EC50 in data set [2] amounted to 0.0063 µM.
For `Cc1cccn2c(C(C)(C)NC(=O)c3cccc4c3OCCNC4)nc(C3CC3)c12` [Example 62], in that order: 0.533 h and 0.004 µM.
For `Cc1nc(C(C)(C)NC(=O)c2cccc3c2OCCNC3)c2ccccc2n1` [Example 64], in that order: above 2.17 h and 0.0223 µM.
Regarding `Cc1cccn2c(C(C)(C)NC(=O)c3cccc4c3OCCNC4)cnc12` [Example 70], the half-life at 1 μM in data set [1] was above 2.17 h. In addition, in data set [2], the EC50 amounted to 0.0113 µM.
Turning to `Cc1cccn2c(C(C)(C)NC(=O)c3cccc4c3OCCNC4)ccc12` [Example 71], in data set [1], the half-life at 1 μM was determined as 0.183 h. For the same compound, in data set [2], the EC50 was 0.0029 µM.
Consider `Cc1cccn2c(C(C)(C)NC(=O)c3nccc4c3OCCNC4)ncc12` [Example 72], for which the half-life at 1 μM in data set [1] is above 2.17 h. Besides, the EC50 in data set [2] turned out to be 0.0136 µM.
Consider `Cc1cccn2c(C(C)(C)NC(=O)c3nccc4c3OCCNC4)nc(C)c12` [Example 75], for which the half-life at 1 μM in data set [1] is above 2.17 h. Further, the 50% effective concentration (EC50) in data set [2] is 0.0104 µM.
With `Cc1cccn2c(C(C)(C)NC(=O)c3ccnc4c3OCCNC4)ncc12` [Example 78], the half-life at 1 μM in data set [1] was above 2.17 h. Besides, the EC50 in data set [2] worked out at 0.0336 µM.
Regarding `Cc1cccn2c(C(C)(C)NC(=O)c3cncc4c3OCCNC4)ncc12` [Example 79], the half-life at 1 μM in data set [1] is above 2.17 h. The EC50 in data set [2] turned out to be 0.0313 µM.

(Values after US10183940B2, “Aryl and heteroaryl-fused tetrahydro-1,4-oxazepine amides as somatostatin receptor subtype 4 (SSTR4) agonists” (Boehringer Ingelheim International GmbH, priority 2014, dated 2019).)
